One data set deals with HO1 WT mice. In words: 72 h survival after MCAO, EC post-treatment. The class given is in vivo, mouse. To be noted: EC 30 mg/kg after 2 h or 4.5 h of reperfusion, 10 survived with vehicle.
The subject of data set [1] is MCAO induced brain injury. Briefly: Neurological deficit score after MCAO, EC treatment. The format is in vivo, mouse. To be noted: for NDS: HO1WT mice. The text has this:
Motor deficits were graded by sensorimotor performance or neurological score by the method of Longa et al. (Stroke. 20:84-91.1989). […] (1) no deficit, (2) forelimb weakness, (3) inability to bear weight on the affected side, (4) no spontaneous motor activity. Epicatechin (EC) was given orally (per kilogram of body weight) through gavage and precautions were taken not only to minimize the stress to animals but also careful administration of the drug solution. For pre-treatment studies, a single dose of EC was given 90 minutes before middle cerebral artery occlusion (MCAO). […] MCAO procedure was slightly modified from the methods previously published by Shah et al. (Shah, et al. in press, 2006). […] To measure relative cerebral blood flow (CBF), mice were placed in a porcine posture on a temperature controlled heat blanket (37° C.). Under an operating microscope, a 0.5-mm diameter microfiber was glued to the skull (over the area of parietal cortex) with cyanoacrylate glue (Super Glue Gel, Ross Products, Inc.) approximately 6 mm lateral and 1 mm posterior of bregma and connected to a laser-Doppler flowmeter (DRT4, Moor Instruments Ltd, Devon, England). Mice were allowed to return to supine position and a neck midline-incision was made to expose the right common carotid artery (CCA), external carotid artery (ECA), and internal carotid arteries (ICA) after dissecting in through out thyroid glands. All the arteries were separated from the vagus nerve. A specially devised method for making 7-0 Ethilon nylon filament (Ethicon, Inc., Somarville, N.J.) with 5 mm of the tip coated with silicone (Cutter Sil Light and Universal Hardener, Heraeus Kulzer, GmbH, Hanau, Germany) was employed and the filament was introduced into the ICA through the ECA stump to block the blood circulation to MCA or circle of Willis. The filament was carefully advanced up to 11 mm from the carotid artery bifurcation or until resistance was felt. […] CFB was monitored for up to 5 minutes and mice not attaining the required drop were terminated from the study. Cortical perfusion values were expressed as a percentage relative to baseline. Animals were shifted to a humidity/temperature-controlled chamber at 32° C. to maintain the body temperature during the 90 minutes of MCA occlusion, at 37° C. For reperfusion mice were briefly anesthetizing and filament was withdrawn. After suturing the neck, midline wound mice were again returned to a humidity/temperature-controlled chamber for 2 h to maintain the body temperature at 37° C. and then later shifted to their respective cages.

Data set [2] in a line: Physiological parameters (pH, PaCO2, PaO2) of mice treated with vehicle and EC. The format is in vivo, mouse. To be noted: different drug concentrations and vehicle. As for the experimental part:
In a separate cohort of mice (5 WT; 5 Nrf2^−/−) that underwent an identical stroke protocol, including CBF monitoring, blood samples were collected through a PE-10 femoral artery catheter (Intramedic; BD Diagnostic Systems, Sparks, Md.) 30 minutes before MCAO, 1 hour after initiation of MCAO, and 1 hour after reperfusion. The blood was evaluated for pH, PaO2, and PaCO2 via blood gas analysis (Rapidlab 248; Chiron Diagnostic Corporation, Norwood, Mass.). In some experiments, blood was drawn intermittently at different intervals of time; 30 minutes before MCAO, 1 h after the initiation of MCAO, and 1 h after reperfusion.

The test system of data set [3] is MCAO induced brain injury. In words: Corrected infarct volume (TTC) after MCAO, EC treatment. The class given is in vivo, mouse. As for the experimental part: After 24 or 72 h of reperfusion, mice were anesthetized, and their brains dissected out and cut into 2-mm coronal sections. Brain slices were stained with 2,3,5-triphenyltetrazolium chloride (TTC, Sigma Co, St. […] Cerebral cortex and striatum volumes in ipsilateral necrotic lesion and contralateral normal side of the brain were measured multiplying the sum of the areas by the distance between sections. Infarct volume was indirectly calculated by subtracting the volume of intact tissue in the ipsilateral hemisphere from that of the contralateral hemisphere and expressed as the percentage of infarct area to the total hemispheric area for each slice. Epicatechin (EC) was given orally (per kilogram of body weight) through gavage and precautions were taken not only to minimize the stress to animals but also careful administration of the drug solution. For pre-treatment studies, a single dose of EC was given 90 minutes before middle cerebral artery occlusion (MCAO). […] MCAO procedure was slightly modified from the methods previously published by Shah et al. (Shah, et al. in press, 2006). […] To measure relative cerebral blood flow (CBF), mice were placed in a porcine posture on a temperature controlled heat blanket (37° C.). Under an operating microscope, a 0.5-mm diameter microfiber was glued to the skull (over the area of parietal cortex) with cyanoacrylate glue (Super Glue Gel, Ross Products, Inc.) approximately 6 mm lateral and 1 mm posterior of bregma and connected to a laser-Doppler flowmeter (DRT4, Moor Instruments Ltd, Devon, England). Mice were allowed to return to supine position and a neck midline-incision was made to expose the right common carotid artery (CCA), external carotid artery (ECA), and internal carotid arteries (ICA) after dissecting in through out thyroid glands. All the arteries were separated from the vagus nerve. A specially devised method for making 7-0 Ethilon nylon filament (Ethicon, Inc., Somarville, N.J.) with 5 mm of the tip coated with silicone (Cutter Sil Light and Universal Hardener, Heraeus Kulzer, GmbH, Hanau, Germany) was employed and the filament was introduced into the ICA through the ECA stump to block the blood circulation to MCA or circle of Willis. The filament was carefully advanced up to 11 mm from the carotid artery bifurcation or until resistance was felt. […] CFB was monitored for up to 5 minutes and mice not attaining the required drop were terminated from the study. Cortical perfusion values were expressed as a percentage relative to baseline. Animals were shifted to a humidity/temperature-controlled chamber at 32° C. to maintain the body temperature during the 90 minutes of MCA occlusion, at 37° C. For reperfusion mice were briefly anesthetizing and filament was withdrawn. After suturing the neck, midline wound mice were again returned to a humidity/temperature-controlled chamber for 2 h to maintain the body temperature at 37° C. and then later shifted to their respective cages.

For data set [4] the following is noted: previous toxicological studies (Galati et al 2006); cited from earlier work.

Molecules are shown by their SMILES.

As for `Oc1cc(O)c2c(c1)O[C@H](c1ccc(O)c(O)c1)[C@H](O)C2` [EC, (−)-Epicatechin], in the data set with HO1 WT mice, the “mice surviving 72 h (of 12 per group)” value was 12 mice. In addition, the neurological deficit score in data set [1] (HO1 WT mice, EC 2.5 mg/kg pre-treatment, no difference vs vehicle) is 3.3±0.29; in data set [1] (HO1 WT mice, EC 5 mg/kg pre-treatment), 3±0.35; in data set [1] (HO1 WT mice, EC 15 mg/kg pre-treatment) it was 2.7±0.39; in data set [1] (HO1 WT mice, EC 30 mg/kg at 3.5 h, scored at 24 h of reperfusion, vehicle 3.5±0.26) it was 2.8±0.3; in data set [1] (HO1 WT mice, EC 30 mg/kg at 6 h, scored at 24 h of reperfusion, vehicle 3.5±0.26), 1.8±0.1; in data set [1] (HO1 WT mice, EC 30 mg/kg pre-treatment) it was 2.5±0.25. The neurological deficit score in data set [1] (Nrf2 WT mice, EC 30 mg/kg pre-treatment, 24 h, vehicle 3.1±0.26) is reported as 2.3±0.1; in data set [1] (Nrf2−/− mice, EC 30 mg/kg pre-treatment, 24 h, vehicle 3.5±0.1, not significant), 3.4±0.17. The NDS in data set [1] (EC 30 mg/kg 6 h post-treatment, vehicle 2.3±0.16, not significant) stood at 1.8±0.1; in data set [1] (EC 30 mg/kg post-treatment (3.5 h after MCAO), vehicle 2.3±0.1), 1.8±0.1. Besides, in data set [2], the “physiological parameters (pH, PaCo2, Pao2) vs vehicle” value was “no differences”. In addition, the corrected infarct volume amounted to 33.8±3.3% in data set [3] (HO1 WT mice, EC 2.5 mg/kg oral 90 min before MCAO, 24 h reperfusion, not significant); 28.8±2.9% in data set [3] (HO1 WT mice, EC 5 mg/kg oral 90 min before MCAO, 24 h reperfusion); 24.9±3.8% in data set [3] (HO1 WT mice, EC 15 mg/kg oral 90 min before MCAO, 24 h reperfusion); 20.1±2.7% in data set [3] (HO1 WT mice, EC 30 mg/kg oral 90 min before MCAO (90 min), 24 h reperfusion, vehicle 34.2±3.4%); 43.0±2.4 in data set [3] (Nrf2−/− mice, EC 30 mg/kg 90 min before MCAO, 24 h reperfusion, vehicle 44.8±4.6, not significant, in %). Further, the infarct volume was found to be 33.5±3.2 in data set [3] (HO1 WT mice, EC 30 mg/kg after 2 h of reperfusion, 72 h, vehicle 46.6±5.3, in %); 33.8±3.2% in data set [3] (HO1−/− mice, EC 30 mg/kg 90 min before MCAO, 24 h reperfusion, vehicle 37.1±3.9%, not significant); 24.1±1.8% in data set [3] (Nrf2 WT mice, EC 30 mg/kg 90 min before MCAO, 24 h reperfusion, vehicle 31.3±1.9%). Besides, the infarction volume in data set [3] (HO1WT mice, EC 30 mg/kg post-treatment (3.5 h after MCAO), 72 h survival, vehicle 46.6±5.3%) came out at 33.5±3.2%. Also, the safe dose entry in data set [4] is on record as “up to 150 mg”.
